Measured values published in US11530229B2, “Cyano cyclobutyl compounds for CBL-B inhibition and uses thereof” (Nurix Therapeutics, Inc., priority 2019, dated 2022).
Read-outs that look alike come from different tables or passages of the source.

Tests used:
[1] = test system: primary human total T-cells; assay: T-cell activation, IL-2 secretion, Biological Example 2; type: cell-based; conditions: 48 hours, fold change over baseline; for fold induction at 0.3 µM: 0.3 μM inhibitor; for fold induction at 1 µM: 1 μM inhibitor; for fold induction at 3 µM: 3 μM inhibitor
[2] = test system: primary human total T-cells; assay: T-cell activation, CD25 surface staining, Biological Example 2; type: cell-based; conditions: 48 hours, fold change over baseline; for fold induction at 0.3 µM: 0.3 μM inhibitor; for fold induction at 1 µM: 1 μM inhibitor; for fold induction at 3 µM: 3 μM inhibitor
Cbl-b = Cbl-b (Homo sapiens (Human), UniProt Q13191); assay: Cbl-b displacement assay (Cbl-b inhibition assay), Biological Example 1; type: binding
Description: Candidate compounds were evaluated for their ability to bind and inhibit Cbl-b, an E3 ubiquitin-protein ligase, as evidenced by their ability to displace a fluorophore-labeled probe (Example 59) bound to Cbl-b.
The ability of candidate compounds to displace a known inhibitor and thereby inhibit Cbl-b activity was measured by monitoring the interaction of Cbl-b with a fluorophore-labeled probe in the presence of the candidate compound. A truncated variant of Cbl-b (UniProt number Q13191; SEQ ID NO:1) containing an Avitag at its N-terminus was co-expressed with BirA biotin ligase and purified using a standard protocol (see Dou et al., Nature Structural and Molecular Biology, 8: 982-987, 2013; Avidity LLC).
Cbl-b Amino Acid Residues 36-427:
Fluorescently-labeled inhibitor probe was synthesized and tagged with BODIPY FL (Example 59). Cbl-b displacement assays were performed in a 384-well plate at room temperature in a 10 μL reaction volume by pre-incubating 0.5 nM Cbl-b or 0.125 nM Cbl-b (final concentration, indicated as “High” and “Low”, respectively) in an assay buffer containing 20 mM HEPES pH 7.5, 150 mM NaCl, 0.01% Triton X-100, 0.01% BSA and 0.5 mM TCEP in the presence of a candidate compound in 1% DMSO (final concentration) for 1 hour. After incubation in the presence of the candidate compound, the plate was incubated for an additional 1 hour in the presence of an approximate EC40 binding saturation consisting of 150 nM fluorescently-labeled inhibitor probe and 2 nM Streptavidin-Terbium (Cisbio) (final concentrations). Following the 1 hour incubation, the plates were read for TR-FRET signal at […] using an Envision plate reader (Perkin Elmer).

[3] = anti-CD3 and anti-CD28 co-stimulation
[4] = anti-CD3 and anti-CD28 co-stimulation, read-out: IL-2 secretion CD3/CD28 1 μM
[5] = anti-CD3 stimulation alone, read-out: IL-2 secretion CD3 1 μM
[6] = anti-CD3 and anti-CD28 co-stimulation, read-out: CD25 staining CD3/CD28 1 μM
[7] = anti-CD3 stimulation alone, read-out: CD25 staining CD3 1 μM
[8] = 0.125 nM Cbl-b final concentration (Low), read-out: Cbl-b activity IC50 (Low)
[9] = read-out: IC50 values in the Cbl-b inhibition assay of Biological Example 1

Chain of Cbl-b (Q13191 36-427): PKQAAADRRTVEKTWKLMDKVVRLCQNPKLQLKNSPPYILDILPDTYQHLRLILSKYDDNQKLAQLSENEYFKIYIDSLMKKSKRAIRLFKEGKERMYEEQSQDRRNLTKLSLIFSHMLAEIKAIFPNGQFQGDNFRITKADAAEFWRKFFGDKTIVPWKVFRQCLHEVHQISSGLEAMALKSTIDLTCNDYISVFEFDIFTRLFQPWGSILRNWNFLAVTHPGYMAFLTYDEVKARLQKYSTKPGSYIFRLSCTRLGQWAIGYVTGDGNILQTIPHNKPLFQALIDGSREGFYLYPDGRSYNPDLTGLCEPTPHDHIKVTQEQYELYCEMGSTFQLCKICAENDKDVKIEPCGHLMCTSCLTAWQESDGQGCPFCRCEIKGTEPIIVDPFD

Compound | fold induction at 0.3 µM [1, 3] | fold induction at 1 µM [1, 4] | fold induction at 1 µM [1, 5] | fold induction at 3 µM ([1]; anti-CD3 stimulation alone) | fold induction at 0.3 µM [2, 3] | fold induction at 1 µM [2, 6] | fold induction at 1 µM [2, 7] | fold induction at 3 µM ([2]; anti-CD3 stimulation alone) | IC50 (Cbl-b; [8]) | IC50 (Cbl-b; [9])
CC1CCCN(Cc2cc3c(c(C(F)(F)F)c2)CN(c2cccc([C@]4(Cc5nncn5C)C[C@@H](C#N)C4)c2)C3=O)CC1 (stereo partly drawn) [Compound 13, (1r,3r)-3-((4-methyl-4H-1,2,4-triazol-3-yl)methyl)-3-(3-(6-((4-methylazepan-1-yl)methyl)-1-oxo-4-(trifluoromethyl)isoindolin-2-yl)phenyl)cyclobutane-1-carbonitrile] | 15 to 20 | 15 to 20 | 0.4 to 0.85 | 0.4 to 0.85 | 1.24 to 1.39 | 1.24 to 1.39 | > 1.15 | 1 to 1.15 | 2 to 5 nM | 
Cn1cnnc1C[C@]1(c2cccc(N3Cc4c(cc(CN5CCC[C@H](C(F)(F)F)C5)cc4C(F)(F)F)C3=O)c2)C[C@H](C#N)C1 [Compound 14, (1R,3r)-3-((4-methyl-4H-1,2,4-triazol-3-yl)methyl)-3-(3-(1-oxo-4-(trifluoromethyl)-6-(((S)-3-(trifluoromethyl)piperidin-1-yl)methyl)isoindolin-2-yl)phenyl)cyclobutane-1-carbonitrile] | 15 to 20 | 15 to 20 | 0.4 to 0.85 | 0.4 to 0.85 | ≤ 1.24 | ≤ 1.24 | ≤ 1 | ≤ 1 | 2 to 5 nM | 
C[C@@H]1CN(Cc2cc3c(c(C(F)(F)F)c2)CN(c2cccc([C@]4(Cc5nncn5C)C[C@@H](C#N)C4)c2)C3=O)C[C@H](C)O1 [Compound 15, (1R,3r)-3-(3-(6-(((2R,6S)-2,6-dimethylmorpholino)methyl)-1-oxo-4-(trifluoromethyl)isoindolin-2-yl)phenyl)-3-((4-methyl-4H-1,2,4-triazol-3-yl)methyl)cyclobutane-1-carbonitrile] | ≤ 15 | 15 to 20 | 0.4 to 0.85 | > 0.85 | 1.24 to 1.39 | 1.24 to 1.39 | 1 to 1.15 | 1 to 1.15 | 2 to 5 nM | 
Cn1cnnc1C[C@]1(c2cccc(N3Cc4c(cc(CN5CCO[C@H](C(F)(F)F)C5)cc4C(F)(F)F)C3=O)c2)C[C@H](C#N)C1 [Compound 16, (1S,3r)-3-((4-methyl-4H-1,2,4-triazol-3-yl)methyl)-3-(3-(1-oxo-4-(trifluoromethyl)-6-(((S)-2-(trifluoromethyl)morpholino)methyl)isoindolin-2-yl)phenyl)cyclobutane-1-carbonitrile] | ≤ 15 | 15 to 20 | 0.4 to 0.85 | > 0.85 | 1.24 to 1.39 | 1.24 to 1.39 | 1 to 1.15 | ≤ 1 | 1 to 2 nM | 1 to 2 nM
Cn1cnnc1C[C@]1(c2cccc(N3Cc4c(cc(CN5CCCC(F)(F)CC5)cc4C(F)(F)F)C3=O)c2)C[C@H](C#N)C1 [Compound 17, (1r,3r)-3-(3-(6-((4,4-difluoroazepan-1-yl)methyl)-1-oxo-4-(trifluoromethyl)isoindolin-2-yl)phenyl)-3-((4-methyl-4H-1,2,4-triazol-3-yl)methyl)cyclobutane-1-carbonitrile] | 15 to 20 | > 20 | 0.4 to 0.85 | 0.4 to 0.85 | 1.24 to 1.39 | 1.24 to 1.39 | 1 to 1.15 | ≤ 1 | 1 to 2 nM | 1 to 2 nM
C[C@@H]1C[C@H](C)CN(Cc2cc3c(c(C(F)(F)F)c2)CN(c2cccc([C@]4(Cc5nncn5C)C[C@@H](C#N)C4)c2)C3=O)C1 [Compound 18, (1R,3r)-3-(3-(6-(((3S,5R)-3,5-dimethylpiperidin-1-yl)methyl)-1-oxo-4-(trifluoromethyl)isoindolin-2-yl)phenyl)-3-((4-methyl-4H-1,2,4-triazol-3-yl)methyl)cyclobutane-1-carbonitrile] | > 20 | > 20 | > 0.85 | > 0.85 | 1.24 to 1.39 | 1.24 to 1.39 | 1 to 1.15 | ≤ 1 | < 1 nM | 
CN(Cc1cc2c(c(C(F)(F)F)c1)CN(c1cccc([C@]3(Cc4nncn4C)C[C@@H](C#N)C3)c1)C2=O)C1CC(F)(F)C1 [Compound 22, (1r,3r)-3-(3-(6-(((3,3-difluorocyclobutyl)(methyl)amino)methyl)-1-oxo-4-(trifluoromethyl)isoindolin-2-yl)phenyl)-3-((4-methyl-4H-1,2,4-triazol-3-yl)methyl)cyclobutane-1-carbonitrile] | ≤ 15 | ≤ 15 | 0.4 to 0.85 | 0.4 to 0.85 | > 1.39 | > 1.39 | 1 to 1.15 | 1 to 1.15 | 2 to 5 nM | 2 to 5 nM
Cn1cnnc1C[C@]1(c2cccc(N3Cc4c(cc(CNC5CC6(C5)CC6(F)F)cc4C(F)(F)F)C3=O)c2)C[C@H](C#N)C1 (stereo partly drawn) [Compound 23, (1r,3r)-3-(3-(6-(((1,1-difluorospiro[2.3]hexan-5-yl)amino)methyl)-1-oxo-4-(trifluoromethyl)isoindolin-2-yl)phenyl)-3-((4-methyl-4H-1,2,4-triazol-3-yl)methyl)cyclobutane-1-carbonitrile] | 15 to 20 | 15 to 20 | 0.4 to 0.85 | 0.4 to 0.85 | 1.24 to 1.39 | 1.24 to 1.39 | 1 to 1.15 | 1 to 1.15 | 1 to 2 nM | 1 to 2 nM
Cn1cnnc1C[C@]1(c2cccc(N3Cc4c(cc(CNC5COC(C)(C)C5)cc4C(F)(F)F)C3=O)c2)C[C@H](C#N)C1 (stereo partly drawn) [Compound 24, (1r,3r)-3-(3-(6-(((5,5-dimethyltetrahydrofuran-3-yl)amino)methyl)-1-oxo-4-(trifluoromethyl)isoindolin-2-yl)phenyl)-3-((4-methyl-4H-1,2,4-triazol-3-yl)methyl)cyclobutane-1-carbonitrile] | ≤ 15 | 15 to 20 | 0.4 to 0.85 | 0.4 to 0.85 | 1.24 to 1.39 | 1.24 to 1.39 | > 1.15 | 1 to 1.15 | 2 to 5 nM | 2 to 5 nM
CC1CCCCN(Cc2cc3c(c(C(F)(F)F)c2)CN(c2cccc([C@]4(Cc5nncn5C)C[C@@H](C#N)C4)c2)C3=O)C1 (stereo partly drawn) [Compound 25, (1r,3r)-3-((4-methyl-4H-1,2,4-triazol-3-yl)methyl)-3-(3-(6-((3-methylazepan-1-yl)methyl)-1-oxo-4-(trifluoromethyl)isoindolin-2-yl)phenyl)cyclobutane-1-carbonitrile] | > 20 | > 20 | > 0.85 | > 0.85 | 1.24 to 1.39 | 1.24 to 1.39 | 1 to 1.15 | ≤ 1 | < 1 nM | < 1 nM
Cn1cnnc1C[C@]1(c2cccc(N3Cc4c(cc(CN5CCCCC(C)(F)C5)cc4C(F)(F)F)C3=O)c2)C[C@H](C#N)C1 (stereo partly drawn) [Compound 26, (1r,3r)-3-(3-(6-((3-fluoro-3-methylazepan-1-yl)methyl)-1-oxo-4-(trifluoromethyl)isoindolin-2-yl)phenyl)-3-((4-methyl-4H-1,2,4-triazol-3-yl)methyl)cyclobutane-1-carbonitrile] | ≤ 15 | ≤ 15 | < 0.4 | < 0.4 | ≤ 1.24 | ≤ 1.24 | ≤ 1 | ≤ 1 | 2 to 5 nM | 
